From US5306808A, “Peptide derivatives having vasodilating activity” (Takeda Chemical Industries, Ltd., priority 1991, dated 1994)
Where a SMILES comes first, the peptide text is derived from it. Bridges are numbered along the chain shown (N, C = ends). [ ]: non-standard residue; d: D form. tBuAla = CC(C)(C)C[C@H](N)C(=O)O; Nva = CCC[C@H](N)C(=O)O; Abu = CC[C@H](N)C(=O)O

Experiments:
endothelin receptor = assay: Assay of affinity for receptor (I125-ET-1 binding to porcine myocardial membrane fraction); conditions: ET-1 = 100
Procedure: A membrane fraction prepared from the porcine heart was diluted to 0.15 mg/ml by using a buffer solution [PBS (pH 7.4) containing 0.5 mM CaCl2, 1.0 mM MgCl2, 0.02% NaN3, 0.1% BSA (fraction V, Sigma), 0.1 mM PMSF and 0.1 μg/ml pepstatin (binding buffer)] for assay, and 100 μl of the resulting suspension of the membrane fraction was poured into each assay tube to use for assay. To this suspension of the membrane fraction were added 2 μl of an endothelin-1 solution labeled with 5 μM radioactive iodine. Further, 3 μl of a test peptide solution was added thereto, followed by maintenance at a temperature of 25° C. for 1 hour. Then, the resulting suspension was diluted with 900 μl of the buffer solution for assay cooled with ice, and thereafter separated into a supernatant and a precipitate by centrifugation at 12,000×g for 10 minutes. Cell membranes and an endothelin receptor embedded therein were contained in the precipitate, and radioactive iodine-labeled endothelin combined with the receptor was also recovered in the precipitate. Accordingly, the amount of radioactive iodine-labeled endothelin combined with the endothelin receptor was determined by measuring the amount of radioactive iodine contained in the precipitate with a gamma-ray counter. Compounds in which the affinity for the endothelin receptor is high and the maximum constriction is not high are antagonists. Contrary to this, compounds in which the affinity for the endothelin receptor is high and the maximum constriction is high are agonists.

porcine coronary artery = assay type: cell-based; conditions: for Constrictor activity (Relative potency): ET-1 = 100; for Maximum Constriction (% 60 mM KCl): normalized to constriction response to 60 mM KCl
Procedure: Each of helical strips 2 mm×15 mm prepared from the coronary right ramus circumflexus from which the adventitial connective tissues and the endothelial cells were removed was set to each of 4 ml organ baths. Its tension was detected by a force displacement transducer UL-10GR (Minebea), and recorded by a polygraph (NEC Sanei). The organ baths were maintained at 37° C., and filled with a Krebs-Henseleit solution (composition:118 mM NaCl, 4.7 mM KCl, 2.5 mM CaCl2, 1.2 mM KH2 PO4, 25.0 mM NaHCO3, 1.2 mM MgSO4, 10.0 mM glucose) gassed with 95% O2 and 5% CO2.
A tension of 1.25 to 1.5 g was applied to each of the strips, followed by equilibration for 1.5 hours. 60 mM KCl was repeatedly applied thereto at intervals of 30 minutes until the constriction response became constant. After additional equilibration for 1.5 hours, a sample for assay was given. The constriction of the strips was normalized by the constriction response of the individual strips to 60 mM KCl and statistically processed.
(2) As to the antagonist property or the agonist property of the peptide derivatives of present invention to endothelin, the affinity for an endothelin receptor and the constrictor activity to porcine coronary smooth muscles (according to the method described in (1) described above) were assayed. The affinity for the receptor was assayed by the following method.

Structure (SMILES)	Receptor binding activity (Relative potency) (endothelin receptor)	Constrictor activity (Relative potency) (porcine coronary artery)	Maximum Constriction (% 60 mM KCl) (porcine coronary artery)
CC[C@H](NC(=O)[C@H](CC(C)C)NC(=O)[C@H](Cc1c[nH]cn1)NC(=O)[C@@H]1CSSC[C@H](N)C(=O)N[C@@H](CO)C(=O)N[C@H]2CSSC[C@H](NC(=O)[C@H](CCC(=O)O)NC(=O)[C@H](CCCCN)NC(=O)[C@H](CC(=O)O)NC(=O)[C@H](CCSC)NC(=O)[C@H](CC(C)C)NC(=O)[C@H](CO)NC(=O)[C@H](CO)NC2=O)C(=O)N[C@@H](C(C)C)C(=O)N[C@@H](Cc2ccc(O)cc2)C(=O)N[C@@H](Cc2ccccc2)C(=O)N1)C(=O)N[C@H](C(=O)N[C@H](C(=O)N[C@@H](Cc1c[nH]c2ccccc12)C(=O)O)[C@@H](C)CC)[C@@H](C)CC [Example 30, [Abu^18]-ET-1] (H-CSCSSLMDKECVYFCHL[Abu]IIW-OH; disulfide 1-15, 3-11)	5.0	< 0.1	6
CCC[C@H](NC(=O)[C@H](CC(C)C)NC(=O)[C@H](Cc1c[nH]cn1)NC(=O)[C@@H]1CSSC[C@H](N)C(=O)N[C@@H](CO)C(=O)N[C@H]2CSSC[C@H](NC(=O)[C@H](CCC(=O)O)NC(=O)[C@H](CCCCN)NC(=O)[C@H](CC(=O)O)NC(=O)[C@H](CCSC)NC(=O)[C@H](CC(C)C)NC(=O)[C@H](CO)NC(=O)[C@H](CO)NC2=O)C(=O)N[C@@H](C(C)C)C(=O)N[C@@H](Cc2ccc(O)cc2)C(=O)N[C@@H](Cc2ccccc2)C(=O)N1)C(=O)N[C@H](C(=O)N[C@H](C(=O)N[C@@H](Cc1c[nH]c2ccccc12)C(=O)O)[C@@H](C)CC)[C@@H](C)CC [Example 31, [Nva^18]-ET-1] (H-CSCSSLMDKECVYFCHL[Nva]IIW-OH; disulfide 1-15, 3-11)	2.4	< 0.1	2
CC[C@H](C)[C@H](NC(=O)[C@H](Cc1ccccc1)NC(=O)[C@H](CC(C)C)NC(=O)[C@H](Cc1c[nH]cn1)NC(=O)[C@@H]1CSSC[C@H](N)C(=O)N[C@@H](CO)C(=O)N[C@H]2CSSC[C@H](NC(=O)[C@H](CCC(=O)O)NC(=O)[C@H](CCCCN)NC(=O)[C@H](CC(=O)O)NC(=O)[C@H](CCSC)NC(=O)[C@H](CC(C)C)NC(=O)[C@H](CO)NC(=O)[C@H](CO)NC2=O)C(=O)N[C@@H](C(C)C)C(=O)N[C@@H](Cc2ccc(O)cc2)C(=O)N[C@@H](Cc2ccccc2)C(=O)N1)C(=O)N[C@H](C(=O)N[C@@H](Cc1c[nH]c2ccccc12)C(=O)O)[C@@H](C)CC [Example 33, [Phe^18]-ET-1] (H-CSCSSLMDKECVYFCHLFIIW-OH; disulfide 1-15, 3-11)	2.4	< 0.1	0
CC[C@H](C)[C@H](NC(=O)[C@H](CO)NC(=O)[C@H](CC(C)C)NC(=O)[C@H](Cc1c[nH]cn1)NC(=O)[C@@H]1CSSC[C@H](N)C(=O)N[C@@H](CO)C(=O)N[C@H]2CSSC[C@H](NC(=O)[C@H](CCC(=O)O)NC(=O)[C@H](CCCCN)NC(=O)[C@H](CC(=O)O)NC(=O)[C@H](CCSC)NC(=O)[C@H](CC(C)C)NC(=O)[C@H](CO)NC(=O)[C@H](CO)NC2=O)C(=O)N[C@@H](C(C)C)C(=O)N[C@@H](Cc2ccc(O)cc2)C(=O)N[C@@H](Cc2ccccc2)C(=O)N1)C(=O)N[C@H](C(=O)N[C@@H](Cc1c[nH]c2ccccc12)C(=O)O)[C@@H](C)CC [Example 34, [Ser^18]-ET-1] (H-CSCSSLMDKECVYFCHLSIIW-OH; disulfide 1-15, 3-11)	20.9	18	79
CC[C@H](C)[C@H](NC(=O)[C@H](CC(C)C)NC(=O)[C@H](Cc1c[nH]cn1)NC(=O)[C@@H]1CSSC[C@H](N)C(=O)N[C@@H](CO)C(=O)N[C@H]2CSSC[C@H](NC(=O)[C@H](CCC(=O)O)NC(=O)[C@H](CCCCN)NC(=O)[C@H](CC(=O)O)NC(=O)[C@H](CCSC)NC(=O)[C@H](CC(C)C)NC(=O)[C@H](CO)NC(=O)[C@H](CO)NC2=O)C(=O)N[C@@H](C(C)C)C(=O)N[C@@H](Cc2ccc(O)cc2)C(=O)N[C@@H](Cc2ccccc2)C(=O)N1)C(=O)N[C@H](C(=O)N[C@H](C(=O)N[C@@H](Cc1c[nH]c2ccccc12)C(=O)O)[C@@H](C)CC)[C@@H](C)CC [Example 43, [Ile^18]-ET-1] (H-CSCSSLMDKECVYFCHLIIIW-OH; disulfide 1-15, 3-11)	3.2	< 0.1	0
CC[C@H](C)[C@H](NC(=O)[C@H](CC(C)(C)C)NC(=O)[C@H](CC(C)C)NC(=O)[C@H](Cc1c[nH]cn1)NC(=O)[C@@H]1CSSC[C@H](N)C(=O)N[C@@H](CO)C(=O)N[C@H]2CSSC[C@H](NC(=O)[C@H](CCC(=O)O)NC(=O)[C@H](CCCCN)NC(=O)[C@H](CC(=O)O)NC(=O)[C@H](CCSC)NC(=O)[C@H](CC(C)C)NC(=O)[C@H](CO)NC(=O)[C@H](CO)NC2=O)C(=O)N[C@@H](C(C)C)C(=O)N[C@@H](Cc2ccc(O)cc2)C(=O)N[C@@H](Cc2ccccc2)C(=O)N1)C(=O)N[C@H](C(=O)N[C@@H](Cc1c[nH]c2ccccc12)C(=O)O)[C@@H](C)CC [Example 45, [γ-Leu^18]-ET-1] (H-CSCSSLMDKECVYFCHL[tBuAla]IIW-OH; disulfide 1-15, 3-11)	1.0	< 0.1	3

Continued, in another order:

Receptor binding activity (Relative potency) (endothelin receptor)	Structure (SMILES)	Constrictor activity (Relative potency) (porcine coronary artery)	Maximum Constriction (% 60 mM KCl) (porcine coronary artery)
0.1	CC[C@H](C)[C@H](NC(=O)[C@H](CC(=O)O)NC(=O)[C@H](CC(C)C)NC(=O)[C@H](Cc1c[nH]cn1)NC(=O)[C@@H]1CSSC[C@H](N)C(=O)N[C@@H](CO)C(=O)N[C@@H](CC(C)C)C(=O)N[C@@H](CO)C(=O)N[C@@H](CO)C(=O)N[C@@H](CC(C)C)C(=O)N[C@@H](CCSC)C(=O)N[C@@H](CC(=O)O)C(=O)N[C@@H](CCCCN)C(=O)N[C@@H](CCC(=O)O)C(=O)N[C@@H](CC(C)C)C(=O)N[C@@H](C(C)C)C(=O)N[C@@H](Cc2ccc(O)cc2)C(=O)N[C@@H](Cc2ccccc2)C(=O)N1)C(=O)N[C@H](C(=O)N[C@@H](Cc1c[nH]c2ccccc12)C(=O)O)[C@@H](C)CC [Example 38, [Leu^3,11]-ET-1] (H-CSLSSLMDKELVYFCHLDIIW-OH; disulfide 1-15)	< 0.1	10
0.59	CC[C@H](C)[C@H](NC(=O)[C@H](CC(=O)O)NC(=O)[C@H](CC(C)C)NC(=O)[C@H](Cc1c[nH]cn1)NC(=O)[C@@H]1CSSC[C@H](N)C(=O)N[C@@H](CO)C(=O)N[C@@H](C(C)C)C(=O)N[C@@H](CO)C(=O)N[C@@H](CO)C(=O)N[C@@H](CC(C)C)C(=O)N[C@@H](CCSC)C(=O)N[C@@H](CC(=O)O)C(=O)N[C@@H](CCCCN)C(=O)N[C@@H](CCC(=O)O)C(=O)N[C@@H](C(C)C)C(=O)N[C@@H](C(C)C)C(=O)N[C@@H](Cc2ccc(O)cc2)C(=O)N[C@@H](Cc2ccccc2)C(=O)N1)C(=O)N[C@H](C(=O)N[C@@H](Cc1c[nH]c2ccccc12)C(=O)O)[C@@H](C)CC [Example 39, [Val^3,11]-ET-1] (H-CSVSSLMDKEVVYFCHLDIIW-OH; disulfide 1-15)	< 0.1	34
3.2	CC[C@H](C)[C@H](NC(=O)[C@H](CCC(=O)O)NC(=O)[C@H](CC(C)C)NC(=O)[C@H](Cc1c[nH]cn1)NC(=O)[C@@H]1CSSC[C@H](N)C(=O)N[C@@H](CO)C(=O)N[C@H]2CSSC[C@H](NC(=O)[C@H](CCC(=O)O)NC(=O)[C@H](CCCCN)NC(=O)[C@H](CC(=O)O)NC(=O)[C@H](CCSC)NC(=O)[C@H](CC(C)C)NC(=O)[C@H](CO)NC(=O)[C@H](CO)NC2=O)C(=O)N[C@@H](C(C)C)C(=O)N[C@@H](Cc2ccc(O)cc2)C(=O)N[C@@H](Cc2ccccc2)C(=O)N1)C(=O)N[C@H](C(=O)N[C@@H](Cc1c[nH]c2ccccc12)C(=O)O)[C@@H](C)CC [Example 46, [Glu^18]-ET-1] (H-CSCSSLMDKECVYFCHLEIIW-OH; disulfide 1-15, 3-11)	< 0.1	6
